Data: patent publication US9814731B2, “Method for the induction of phase 2 related genes in a mammal comprising administering exemestane” (THE JOHNS HOPKINS UNIVERSITY, priority 2013, dated 2017)

Experiments:
308 keratinocytes = experiment: UVA-stimulated ROS production in murine 308 keratinocytes; format: cell-based; details: 24 hours pretreatment, 5 or 10 J/cm^2 UVA
Description: (§1) ARPE-19 or MEF cells (10,000 per well) in 96-well plates (black-walled wells with clear bottom) were treated with serial dilutions of exemestane for 24 hours, and then incubated with 20 μM H2DCFDA for 30 minutes (Chem Res Toxicol 5: 227-231(1992)). After washing with Dulbecco's phosphate-buffered saline (DPBS) twice, the cells were challenged with 500 μM tert-butyl hydroperoxide for 30 minutes, and fluorescence intensity was measured in SpectraMax GeminiEM plate reader (Molecular Devices) with excitation at 485 nm and emission at 530 nm. Murine 308 keratinocytes (40,000 per well) were plated in 24-well plates and grown for 24 hours. Medium was then replaced with medium containing different concentrations of exemestane (0, 2, 4, 8 μM). After further incubation for 24 hours, cells were incubated with 20 μM H2DCFDA for 30 minutes, washed twice with DPBS twice and exposed to 5 or 10 J/cm^2 UVA (340-400 nm). Immediately after UVA irradiation, fluorescence intensity was measured by a microplate reader.

RAW264.7 cells = experiment: Cytotoxicity in RAW264.7 cells; format: cell-based, murine; details: RAW264.7, 20 μM
NQO1 [1] = experiment: NQO1 induction in mouse skin by topical application; format: in vivo, SKH-1 hairless mice; details: three applications at 24-hour intervals
Description: Eleven-month-old female SKH-1 hairless mice (n=5) purchased from Charles River Laboratories were treated three times at 24-hour intervals on the backs with 0, 1 and 2 μmol of exemestane dissolved in 80% aqueous acetone (40 μL) over about a 2.0 cm^2 area. Mice were euthanized 24 hours after the final dose. Each treated segment of the dorsal skin was harvested, pulverized in liquid N2, and homogenized in 10 volumes of 0.25 M sucrose in 10 mM Tris buffer (pH 7.4). After three freeze-thaw cycles, the homogenates were centrifuged at 14,000 rpm and 4° C. for 30 minutes, and the supernatant fractions were analyzed for protein concentration and NQO1 activity. All animal experiments were in compliance with National Institutes of Health Guidelines and were approved by The Johns Hopkins University Animal Care and Use Committee.

ARPE-19 cells [2] = experiment: Intracellular ROS in ARPE-19 cells challenged with tert-butyl hydroperoxide; format: cell-based, human; details: ARPE-19, 24 hours pretreatment, 500 μM tert-butyl hydroperoxide
Description: as §1

NQO1 [3] = experiment: NQO1 assay in human retinal pigment epithelial ARPE-19 cells; format: cell-based; details: 48 hours exposure
Description: (§2) Cells (10,000 per well) were grown in 96-well plates for 24 hours, then exposed to serial dilutions of inducers for 48 hours, and lysed in 0.08% digitonin. Enzymatic activity of NQ01 in cell lysates was determined with menadione as a substrate (Anal Biochem 169: 328-336 (1988), Methods Enzymol 382(B): 243-258 (2004)). The concentrations required to double the specific activity of NQO1 (CD values) were used to quantify inducer potency.

NQO1 [4] = experiment: NQO1 assay in wild-type MEF; format: cell-based, mouse; details: 48 hours
Description: as §2

iNOS [5] = experiment: LPS-activated iNOS (NO production) in wild-type mouse peritoneal macrophages; format: cell-based; details: Peritoneal macrophage, single agent, 100 ng/ml LPS, 24 hours, read-out: concentration required for 50% inhibition of LPS-stimulated nitric oxide generation
Description: (§3) Nrf2−/− mice on C57BL/6 background were initially established by Itoh et al. WT C57BL/6 mice were purchased from The Jackson Laboratory. Macrophages were harvested by lavage from the peritoneal cavity with DPBS 4 days after an i.p. injection of thioglycolate broth (Brewer, 4%). Isolated cells were plated into 96-well plates at a density of 10^5 cells per well in RPMI 1640 medium containing 2 mM Lglutamine, 10% heat-inactivated FBS, 100 U/ml […]. After 3 hours of incubation at 37° C. in 5% CO2. nonmacrophage cells were washed away with DPBS. The remaining macrophages were exposed immediately to serial dilutions of exemestane, sulforaphane or a combination of both compounds in the presence of 100 ng/ml LPS, and incubated for 24 hours before measurement of iNOS.
(§4) RAW264.7 cells (20,000 per well) in 96-well plates, were grown for 24 hours, and exposed to serial dilutions of exemestane in the presence of 10 ng/ml LPS. After 48-hour incubation, nitrite concentration in culture supernatant fractions of RAW264.7 cells or mouse peritoneal macrophages, measured as an indicator of iNOS induction, was determined by the Griess reaction (Cancer Res 58: 717-723 (1998), Proc Natl Acad Sci USA 105: 15926-15931 (2008)). The nitrite values of cells treated with LPS but without test compounds were used as controls.

Nrf2-/- MEF cells = experiment: ROS in Nrf2-/- MEF challenged with tert-butyl hydroperoxide; format: cell-based, mouse; details: 24 hours pretreatment
Description: as §1

H9c2 cells = experiment: Hypoxia/reoxygenation injury in H9c2 cardiomyocytes (MTT); format: cell-based, rat; details: H9c2, 24 hours pretreatment, 10 μM
Description: (§5) ARPE-19 cells (10,000 cells/well) in 96-well plates were treated with serial dilutions of exemestane for 24 hours, and exposed to tert-butyl hydroperoxide or 4-hydroxynonenal in serum-free medium for 4 hours. The cells were then incubated in serum-free medium for additional 20 hours, washed with DPBS, and cell viability was determined using the colorimetric procedure based on the reduction of a water-soluble tetrazolium salt, 3-(4,5-dimethylthiazo-2-yl)-2,5-diphenyltetrazolium bromide (MTT). H9c2 cells (10,000 cells/well) in 96-well plates were treated with a range of concentrations of exemestane. After 24 hours, the cells were washed with DPBS, and exposed to 2 mM Na2S2O4 in serum-free medium for 1 hour. The cells were then washed with DPBS and incubated in complete medium containing 10% FBS for 24 hours, and then cell viability was measured by the MTT assay.

NQO1 [6] = experiment: NQO1 assay in rat H9c2 myocardiocytes; format: cell-based; details: H9c2 cells, 48 hours exposure
Description: as §2

ARPE-19 cells [7] = experiment: Cytotoxicity of oxidative stresses in ARPE-19 cells (MTT); format: cell-based, human; details: ARPE-19, 24 hours pretreatment 0-20 μM
Description: as §5

breast cancer = details: 4560 women at moderately increased risk for developing breast cancer; cited from earlier work
heme oxygenase-1 (HO-1) = experiment: Real-time PCR of HO-1 mRNA in H9c2 cells; format: cell-based, rat; details: 10 μM, 6 hours
Description: (§6) Total mRNA from cells was extracted with TRIzol reagent (Invitrogen, Carlsbad, Calif.). […] was synthesized by the iScript cDNA Synthesis Kit (Bio-Rad Laboratories, Inc., Hercules, Calif.). Quantitative real-time PCR analysis was performed using the 7000 Sequence Detection System (Applied Biosystems, Foster City, Calif.). All primers were optimized and a final primer concentration of 300 nM was used for all reactions. Primer sequences for gene amplification were as follows: NAD(P)H: quinone oxidoreductase 1 (NQO1): fwd 5′-[…]-3′ (SEQ ID NO: 1), rev 5′-[…]-3′ (SEQ ID NO: 2); heme oxygenase-1 (HO-1): fwd 5′-[…]-3′ (SEQ ID NO: 3), rev 5′-[…]-3′ (SEQ ID NO: 4). (3-actin (endogenous control): fwd 5′-[…]-3′ (SEQ ID NO: 5), rev 5′-catcllllcacggttggcctta-3′ (SEQ ID NO: 6). The reactions were assembled using 5 ng of cDNA, 1× Power SYBR Green PCR Master Mix (Life Technologies), forward and reverse primers, and nuclease-free water. Relative mRNA expression was normalized to β-actin. Gene expression was calculated using the comparative 2^−ΔΔCT method.

NQO1 [8] = experiment: Real-time PCR of NQO1 mRNA in H9c2 cells; format: cell-based, rat; details: 10 μM, 6 hours
Description: as §6

WT MEF cells = experiment: ROS in wild-type MEF challenged with tert-butyl hydroperoxide; format: cell-based, mouse; details: 24 hours pretreatment
Description: as §1

NQO1 [9] = experiment: NQO1 assay in murine 308 keratinocytes; format: cell-based; details: 308 cells, 48 hours exposure
Description: as §2

[10] = system: Hepa1c1c7, ARPE-19, 308 and H9c2 cells; experiment: Cytotoxicity in all cell lines of the NQO1 assay (Hepa1c1c7, ARPE-19, 308, H9c2); format: cell-based; details: up to 20 μM, the highest concentration tested
iNOS [11] = experiment: LPS-activated iNOS (NO production, Griess reaction) in RAW264.7 cells; format: cell-based, murine; details: for IC50: Mus musculus, RAW264.7, 10 ng/ml LPS, 48 h, read-out: IC50 of NO generation; for inhibition of LPS-stimulated NO production: RAW264.7, up to 20 μM
Description: RAW264.7 cells (20,000 per well) in 96-well plates, were grown for 24 hours, and exposed to serial dilutions of exemestane in the presence of 10 ng/ml LPS. […] The nitrite values of cells treated with LPS but without test compounds were used as controls.

NQO1 [12] = experiment: NQO1 assay in Nrf2-knockout MEF; format: cell-based, mouse; details: 48 hours
Description: as §2

NQO1 [13] = experiment: NQO1 assay in murine hepatoma Hepa1c1c7 cells; format: cell-based; details: for CD value (concentration required to double the specific activity of NQO1): 48 hours exposure; for inducer activity for NQO1: concentrations up to 20 μM
Description: as §2

iNOS [14] = experiment: LPS-activated iNOS (NO production) in Nrf2-/- mouse peritoneal macrophages; format: cell-based; details: LPS 100 ng/ml, 24 hours
Description: as §3, §4

NF-κB = experiment: LPS-induced NF-κB luciferase reporter in U937 3×κB-LUC cells; format: cell-based, human; details: LPS 10 ng/ml; for effect on LPS-activated NF-κB by itself: 6 hours, exemestane up to 30 μM; for effect on the inhibitory effect of sulforaphane on NF-κB activation: combined with sulforaphane
Description: Human monocytic U937-3×κB-LUC cells were transferred to medium with 2% heat-inactivated FBS in 24-well plates (1×10^6 cells/well) and incubated overnight. Then cells were incubated with exemestane, sulforaphane, combination of both compounds, or vehicle control for 30 minutes, and exposed to LPS (10 ng/ml). After an additional 6-hour incubation, cells were harvested and NF-κB-driven luciferase activity was assayed according to the manufacturer's instructions (Promega, Madison, Wis.). Luciferase activity was normalized to total protein concentration to compensate for possible cell toxicity of the compounds.

Hepa1c1c7 cells = experiment: Cytotoxicity in Hepa1c1c7 cells; format: cell-based, murine; details: 20 μM

IC50 (iNOS [5]) [nM] | IC50 (iNOS [11]) [nM] | SMILES | toxicity (RAW264.7 cells) | CD value (concentration required to double the specific activity of NQO1) (NQO1 [3]) [µM] | NQO1 activity (NQO1 [4]) | CD value (concentration required to double the specific activity of NQO1) (NQO1 [6]) [µM] | CD value (concentration required to double the specific activity of NQO1) (NQO1 [9]) [µM] | NQO1 activity (NQO1 [12]) | CD value (concentration required to double the specific activity of NQO1) (NQO1 [13]) [µM] | effect on LPS-activated NF-κB by itself (NF-κB) | effect on the inhibitory effect of sulforaphane on NF-κB activation (NF-κB) | inhibition of LPS-stimulated NO production (iNOS [11]) | inducer activity for NQO1 (NQO1 [13]) | other results
24200 | 2500 | C=C1C[C@@H]2[C@H](CC[C@]3(C)C(=O)CC[C@@H]23)[C@@]2(C)C=CC(=O)C=C12 [Exemestane, 6-methyleneandrosta-1,4-diene-3,17-dione] | no toxicity | 2.2 | dose-dependently induced NQO1 activity | 2.9 | 0.65 | not affected | 0.65 | no effect | dramatically enhanced | – | – | ROS in UVA-irradiated cells (308 keratinocytes): dose-dependently led to the reduction of ROS; elevation of NQO1 activity in homogenates of skin (NQO1 [1]; 0.5 μmol/cm^2 per application): 1.3 fold; elevation of NQO1 activity in homogenates of skin (NQO1 [1]; 1.0 μmol/cm^2 per application): 1.7 fold; ROS production stimulated by tert-butyl hydroperoxide (ARPE-19 cells [2]): suppressed ROS production; protection against tert-butyl hydroperoxide-stimulated ROS (Nrf2-/- MEF cells): no protection; cell viability after hypoxia/reoxygenation (H9c2 cells): almost totally restored cell viability; protection against cytotoxicity of tert-butyl hydroperoxide (ARPE-19 cells [7]; oxidant 0.2, 0.4, 0.8 mM for 4 hours): protected against cytotoxicity; protection against cytotoxicity of 4-hydroxynonenal (ARPE-19 cells [7]; oxidant 10, 20, 40 μM for 4 hours): protected against cytotoxicity; reduction of the risk of breast cancer relative to placebo (breast cancer): 65%; increase in mRNA levels of HO-1 over control cells (heme oxygenase-1 (HO-1)): greater than 8 fold; increase in NQO1 mRNA expression over control cells (NQO1 [8]): 3 fold; tert-butyl hydroperoxide-stimulated ROS levels (WT MEF cells): clearly suppressed; cytotoxicity [10]: no cytotoxicity; inhibition of LPS-stimulated NO production in Nrf2-/- compared with WT macrophages (iNOS [14]): much less effective inhibitor
– | – | N#Cc1ccc(C(c2ccc(C#N)cc2)n2cncn2)cc1 [letrozole] | no toxicity | – | – | – | – | – | – | no effect | did not enhance | did not inhibit | no inducer activity | –
1500 | 500 | C[S+]([O-])CCCCN=C=S (stereo not drawn) [sulforaphane, R,S-sulforaphane] | – | 0.7 | dose-dependently induced NQO1 activity | 0.9 | 0.2 | not affected | 0.2 | – | – | – | – | –
– | – | CC/C(=C(\c1ccccc1)c1ccc(OCCN(C)C)cc1)c1ccccc1 [tamoxifen] | – | – | – | – | – | – | – | – | – | did not inhibit | did not induce NQO1 activity | cytotoxicity (RAW264.7 cells): 50%; cytotoxicity (Hepa1c1c7 cells): about 90%
